ChEMBL document CHEMBL5038674, “Structure-Activity Relationship of Anti-Mycobacterium abscessus Piperidine-4-carboxamides, a New Class of NBTI DNA Gyrase Inhibitors” (ACS Med Chem Lett, 2022)
Converted amounts (≈) assume the structure as drawn. The source made the active and inactive calls. The calls are words filed in the database; no cut-off is given here.

How the values were obtained:
[1] = Antimycobacterial activity against Mycobacterium abscessus subsp. abscessus bamboo strain assessed as inhibition of mycobacterial growth incubated for 3 days by broth microdilution method; format: functional; conditions: Mycobacteroides abscessus, 72 h, time 3 day
[2] = Lipophilicity, logP of compound; format: physicochemical; conditions: octanol/water
[3] = test system: Mycobacteroides abscessus; test: Antimycobacterial activity against Mycobacterium abscessus ATCC 19977 assessed as inhibition of mycobacterial growth incubated for 3 days by broth microdilution method; format: functional; conditions: ATCC 19977, 72 h, time 3 day
[4] = Antimycobacterial activity against Mycobacterium abscessus subsp. bolletii CCUG 50184T assessed as inhibition of mycobacterial growth incubated for 3 days by broth microdilution method; format: functional; conditions: Mycobacteroides abscessus, 72 h, time 3 day
[5] = Antimycobacterial activity against Mycobacterium abscessus subsp. massiliense CCUG 48898T assessed as inhibition of mycobacterial growth incubated for 3 days by broth microdilution method; format: functional; conditions: Mycobacteroides abscessus, 72 h, time 3 day
[6] = test system: Mycobacteroides abscessus; test: Antimycobacterial activity against Mycobacterium abscessus K21 assessed as inhibition of mycobacterial growth incubated for 3 days by broth microdilution method; format: functional; conditions: K21, 72 h, time 3 day
Mycobacterium avium = test: Antimycobacterial activity against Mycobacterium avium 11 assessed as inhibition of mycobacterial growth incubated for 3 days by broth microdilution method; format: functional; conditions: Mycobacterium avium, 11, 72 h; time 3 day
Staphylococcus aureus = test: Antibacterial activity against Staphylococcus aureus assessed as inhibition of bacterial growth incubated for 3 days by broth microdilution method; format: functional; conditions: 72 h, time 3 day
A-375 = test: Cytotoxicity against human A375 cells assessed as reduction in cell viability upto 30 uM after 24 hrs by SRB assay; format: functional, cell-based; conditions: dose microM <=30, time 24.0 hrs
HT-29 = test: Cytotoxicity against human HT-29 cells assessed as reduction in cell viability upto 30 uM after 24 hrs by SRB assay; format: functional, cell-based; conditions: dose microM <=30, time 24.0 hrs
MCF7 = test: Cytotoxicity against human MCF7 cells assessed as reduction in cell viability upto 30 uM after 24 hrs by SRB assay; format: functional, cell-based; conditions: dose microM <=30, time 24.0 hrs
FaDu = test: Cytotoxicity against human FaDu cells assessed as reduction in cell viability upto 30 uM after 24 hrs by SRB assay; format: functional, cell-based; conditions: dose microM <=30, time 24.0 hrs
NIH3T3 = test: Cytotoxicity against mouse NIH3T3 cells assessed as reduction in cell viability upto 30 uM after 24 hrs by SRB assay; format: toxicity, cell-based; conditions: nih3t3, 24 h
HEK293 = test: Cytotoxicity against human HEK293 cells assessed as reduction in cell viability upto 30 uM after 24 hrs by SRB assay; format: toxicity, cell-based; conditions: hek293, 24 h
[7] = Inhibition of Mycobacterium abscessus DNA gyrase using pBR322 DNA as substrate […] by fluorescence based microplate reader assay; design: species or system Mycobacteroides abscessus
[8] = Stability of compound in CD1 mouse at 25 mg/kg, po by HPLC-MS/MS analysis; format: ADME, organism-based; conditions: in vivo
[9] = Stability of compound in CD1 mouse plasma assessed as parent compound remaining by QE-HRMS analysis; format: ADME, cell-free
[10] = molecular target: Voltage-gated inwardly rectifying potassium channel KCNH2 (Homo sapiens, UniProt Q12809); test: Inhibition of human ERG; format: toxicity
Voltage-gated inwardly rectifying potassium channel KCNH2, sequence (Q12809 whole entry): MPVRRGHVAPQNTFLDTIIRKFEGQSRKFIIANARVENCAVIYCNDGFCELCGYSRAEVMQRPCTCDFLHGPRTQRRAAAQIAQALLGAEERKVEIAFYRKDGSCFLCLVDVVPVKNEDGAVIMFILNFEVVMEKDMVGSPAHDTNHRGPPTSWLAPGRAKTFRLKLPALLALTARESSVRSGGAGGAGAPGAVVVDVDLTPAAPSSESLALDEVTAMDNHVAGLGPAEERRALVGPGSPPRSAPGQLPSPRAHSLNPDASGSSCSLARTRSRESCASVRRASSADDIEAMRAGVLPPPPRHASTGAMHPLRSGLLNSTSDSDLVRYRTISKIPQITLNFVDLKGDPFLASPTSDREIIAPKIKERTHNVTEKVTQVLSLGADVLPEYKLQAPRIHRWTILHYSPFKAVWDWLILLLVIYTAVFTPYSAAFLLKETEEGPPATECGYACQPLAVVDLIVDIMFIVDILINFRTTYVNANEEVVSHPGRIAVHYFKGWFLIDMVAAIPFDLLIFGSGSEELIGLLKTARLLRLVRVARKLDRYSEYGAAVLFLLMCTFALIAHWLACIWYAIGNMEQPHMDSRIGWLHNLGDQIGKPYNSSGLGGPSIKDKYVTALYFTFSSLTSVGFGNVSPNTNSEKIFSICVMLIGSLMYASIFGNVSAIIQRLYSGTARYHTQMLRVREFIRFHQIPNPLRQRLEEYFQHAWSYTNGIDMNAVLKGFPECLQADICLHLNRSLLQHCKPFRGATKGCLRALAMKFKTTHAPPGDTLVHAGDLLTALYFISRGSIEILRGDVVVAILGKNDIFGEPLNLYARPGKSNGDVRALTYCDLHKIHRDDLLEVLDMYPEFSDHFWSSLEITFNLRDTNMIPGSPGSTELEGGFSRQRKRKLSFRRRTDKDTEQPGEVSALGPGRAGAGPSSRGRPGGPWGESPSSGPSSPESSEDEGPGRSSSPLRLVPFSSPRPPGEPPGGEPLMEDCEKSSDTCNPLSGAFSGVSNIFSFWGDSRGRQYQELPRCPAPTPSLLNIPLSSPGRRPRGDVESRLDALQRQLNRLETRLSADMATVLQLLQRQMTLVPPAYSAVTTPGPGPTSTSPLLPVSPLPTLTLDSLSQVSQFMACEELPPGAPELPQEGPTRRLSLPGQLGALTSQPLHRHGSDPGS

[11] = test system: Mycobacterium abscessus subsp. abscessus; test: Upregulation of RecA promoter activity in P4C resistant Mycobacterium abscessus subsp. abscessus ATCC 19977 mutant D91N assessed as bacterial DNA damage by luminescence assay; format: functional; conditions: time 3.0 day
[12] = test system: Mycobacterium abscessus subsp. abscessus; test: Upregulation of RecA promoter activity in Mycobacterium abscessus subsp. abscessus ATCC 19977 assessed as bacterial DNA damage by luminescence assay; format: functional
hERG (KCNH2) = hERG (KCNH2) (Homo sapiens, UniProt Q12809); test: Inhibition of human ERG at 10 uM; format: toxicity
hERG (KCNH2), sequence (Q12809 whole entry): as above

COc1ccc2nccc(NC(=O)C3CCN(CCc4ccc(C(F)(F)F)c(F)c4)CC3)c2n1
MIC90 [1]: 0.6 µM (≈ 0.286 µg/mL) | logP [2]: 3.1 | MIC90 [3]: 0.6 µM (≈ 0.286 µg/mL) | MIC90 [4]: 1 µM (≈ 0.476 µg/mL) | MIC90 [5]: 1.5 µM (≈ 0.715 µg/mL) | MIC90 [6]: 2 µM (≈ 0.953 µg/mL) | MIC90 (Mycobacterium avium): 0.8 µM (≈ 0.381 µg/mL) | MIC90 (Staphylococcus aureus): 0.5 µM (≈ 0.238 µg/mL) | Activity (A-375): inactive | Activity (HT-29): inactive | Activity (MCF7): inactive | Activity (FaDu): inactive | Activity (NIH3T3): Non-Toxic | Activity (HEK293): Non-Toxic

COc1ccc2nccc(NC(=O)C3CCN(CCc4c(F)cccc4F)CC3)c2n1
MIC90 [1]: 100 µM (≈ 42.6 µg/mL) | logP [2]: 2.3

COc1ccc2nccc(NC(=O)CC3CCN(Cc4ccc(C(F)(F)F)cc4)CC3)c2n1
IC50 [7]: 40000 nM | MIC90 [1]: 100 µM (≈ 45.8 µg/mL) | logP [2]: 2.8

COc1ccc2cccc(NC(=O)C3CCN(CCc4ccc(C(F)(F)F)cc4)CC3)c2n1
IC50 [7]: 3000 nM | MIC90 [1]: 3.12 µM (≈ 1.43 µg/mL) | logP [2]: 3.6 | Activity (A-375): inactive | Activity (HT-29): inactive | Activity (MCF7): inactive | Activity (FaDu): inactive | Activity (NIH3T3): Non-Toxic | Activity (HEK293): Non-Toxic

COc1ccc2nccc(NC(=O)C3CCN(CCc4ccc(F)cc4)CC3)c2n1
MIC90 [1]: 50 µM (≈ 20.4 µg/mL) | logP [2]: 2.1

COc1ccc2nccc(NC(=O)C3CCN(CCc4ccc(OC(F)(F)F)cc4)CC3)c2n1
MIC90 [1]: 100 µM (≈ 47.4 µg/mL) | logP [2]: 4

COc1ccc2nccc(NC(=O)C3CCN(CCc4ccc(F)c(F)c4)CC3)c2n1
MIC90 [1]: 25 µM (≈ 10.7 µg/mL) | logP [2]: 2.3

COc1ccc2nccc(NC(=O)C3CCN(CCc4cccc(F)c4F)CC3)c2n1
MIC90 [1]: 100 µM (≈ 42.6 µg/mL) | logP [2]: 2.3

COc1ccc2nccc(NC(=O)C3CCN(CCc4ccc(Cl)cc4)CC3)c2c1
MIC90 [1]: 50 µM (≈ 21.2 µg/mL) | logP [2]: 2.8

COc1ccc2nccc(NC(=O)C3(C)CCN(CCc4ccc(C(F)(F)F)cc4)CC3)c2n1
IC50 [7]: 6000 nM | MIC90 [1]: 3 µM (≈ 1.42 µg/mL) | logP [2]: 3.3 | MIC90 [3]: 3 µM (≈ 1.42 µg/mL) | MIC90 [4]: 6.4 µM (≈ 3.02 µg/mL) | MIC90 [5]: 8 µM (≈ 3.78 µg/mL) | MIC90 [6]: 8 µM (≈ 3.78 µg/mL) | MIC90 (Mycobacterium avium): 6 µM (≈ 2.84 µg/mL) | MIC90 (Staphylococcus aureus): 1 µM (≈ 0.473 µg/mL) | Activity (A-375): inactive | Activity (HT-29): inactive | Activity (MCF7): inactive | Activity (FaDu): inactive | Activity (NIH3T3): Non-Toxic | Activity (HEK293): Non-Toxic | Stability [8]: Stable | Stability [9]: Stable

O=C(Nc1cccc2ccc(Cl)nc12)C1CCN(CCc2ccc(C(F)(F)F)cc2)CC1
IC50 [7]: 3000 nM | MIC90 [1]: 50 µM (≈ 23.1 µg/mL) | logP [2]: 3.9

COc1ccc2nccc(NC(=O)C3CCN(CCc4ccc(F)cc4F)CC3)c2n1
MIC90 [1]: 50 µM (≈ 21.3 µg/mL) | logP [2]: 2.3

COc1ccc2nccc(NC(=O)[C@H]3CC[C@H](NCc4ccc(C(F)(F)F)cc4)CC3)c2n1
IC50 [7]: 1500 nM | MIC90 [1]: 0.4 µM (≈ 0.183 µg/mL) | logP [2]: 3.3 | MIC90 [3]: 0.4 µM (≈ 0.183 µg/mL) | MIC90 [4]: 1 µM (≈ 0.458 µg/mL) | MIC90 [5]: 1.2 µM (≈ 0.55 µg/mL) | MIC90 [6]: 2 µM (≈ 0.917 µg/mL) | MIC90 (Mycobacterium avium): 2 µM (≈ 0.917 µg/mL) | MIC90 (Staphylococcus aureus): 0.7 µM (≈ 0.321 µg/mL) | Activity (A-375): inactive | Activity (HT-29): inactive | Activity (MCF7): inactive | Activity (FaDu): inactive | Activity (NIH3T3): Non-Toxic | Activity (HEK293): Non-Toxic

COc1ccc2nccc(NC(=O)C3CCN(CCc4cc(F)cc(F)c4)CC3)c2n1
MIC90 [1]: 50 µM (≈ 21.3 µg/mL) | logP [2]: 2.3

COc1ccc(CCN2CCC(C(=O)Nc3ccnc4ccc(OC)nc34)CC2)cc1
MIC90 [1]: 100 µM (≈ 42.1 µg/mL) | logP [2]: 1.9

COc1ccc2nccc(NS(=O)(=O)C3CCN(CCc4ccc(C(F)(F)F)cc4)CC3)c2n1
MIC90 [1]: 100 µM (≈ 49.5 µg/mL) | logP [2]: 2.4

COc1cnc2ccc(=O)n(CCN3CCC(NCc4ccc(Cl)c(Cl)c4)CC3)c2c1
MIC [1]: < 0.02 µM | IC50 [10]: 1320 nM

O=C1COc2ccc(CNC3CCN(CCn4c(=O)ccc5ccc(Oc6ccccn6)nc54)CC3)nc2N1
IC50 [7]: 110 nM | MIC [1]: 0.06 µM (≈ 0.0317 µg/mL) | IC50 [10]: 155000 nM

O=c1ccc2ncc(=O)n3c2n1C[C@H]3CN1CCC(NCc2cc3c(cn2)OCCC3)CC1 [GEPOTIDACIN]
IC50 [7]: 2000 nM | MIC90 [1]: 10 µM (≈ 4.49 µg/mL) | logP [2]: 0.1 | Activity [11]: inactive | Activity [12]: Active

COc1ccc2nccc(NC(=O)C3CCN(CCc4cccc(C(F)(F)F)c4)CC3)c2n1
MIC90 [1]: 12.5 µM (≈ 5.73 µg/mL) | logP [2]: 2.9 | Activity (A-375): inactive | Activity (HT-29): inactive | Activity (MCF7): inactive | Activity (FaDu): inactive | Activity (NIH3T3): Non-Toxic | Activity (HEK293): Non-Toxic

COc1ccc2nccc(NC(=O)C3CCN(CCc4cccc(F)c4)CC3)c2n1
MIC90 [1]: 25 µM (≈ 10.2 µg/mL) | logP [2]: 2.1

COc1ccc2nccc(NC(=O)C3CCN(CCc4ccc(Cl)cc4)CC3)c2n1
IC50 [7]: 3000 nM | MIC90 [1]: 12 µM (≈ 5.1 µg/mL) | logP [2]: 2.6 | Activity (A-375): inactive | Activity (HT-29): inactive | Activity (MCF7): inactive | Activity (FaDu): inactive

COc1ccc2nccc(NC(=O)C3CCN(CCc4ccc(C(F)(F)F)cc4)CC3)c2c1
IC50 [7]: 6000 nM | MIC90 [1]: 100 µM (≈ 45.7 µg/mL) | logP [2]: 3

COc1ccc2nccc(NC(=O)C3CCN(CCc4ccccc4F)CC3)c2n1
MIC90 [1]: 50 µM (≈ 20.4 µg/mL) | logP [2]: 2.1

COc1ccc2nccc(NC(=O)C3CCN(CCc4ccc(C(F)(F)F)cc4)CC3)c2n1
IC50 [7]: 1500 nM | MIC90 [1]: 1.5 µM (≈ 0.688 µg/mL) | logP [2]: 2.9 | MIC90 [3]: 1.5 µM (≈ 0.688 µg/mL) | MIC90 [4]: 2 µM (≈ 0.917 µg/mL) | MIC90 [5]: 2 µM (≈ 0.917 µg/mL) | MIC90 [6]: 3.5 µM (≈ 1.6 µg/mL) | MIC90 (Mycobacterium avium): 2.5 µM (≈ 1.15 µg/mL) | MIC90 (Staphylococcus aureus): 0.2 µM (≈ 0.0917 µg/mL) | Activity (A-375): inactive | Activity (HT-29): inactive | Activity (MCF7): inactive | Activity (FaDu): inactive | Activity (NIH3T3): Non-Toxic | Activity (HEK293): Non-Toxic | inhibition at 10 µM (hERG (KCNH2)): 93% | Stability [8]: Stable | Stability [9]: Stable

COc1c(N2C[C@@H]3CCCN[C@@H]3C2)c(F)cc2c(=O)c(C(=O)O)cn(C3CC3)c12 [MOXIFLOXACIN]
MIC90 [1]: 2 µM (≈ 0.803 µg/mL) | MIC90 [3]: 2 µM (≈ 0.803 µg/mL) | MIC90 [4]: 4 µM (≈ 1.61 µg/mL) | MIC90 [5]: 4 µM (≈ 1.61 µg/mL) | MIC90 [6]: 4 µM (≈ 1.61 µg/mL) | MIC90 (Mycobacterium avium): 0.6 µM (≈ 0.241 µg/mL) | MIC90 (Staphylococcus aureus): 0.2 µM (≈ 0.0803 µg/mL)
